Test results: PubChem BioAssay AID2060886 (Molecular Pharmacology Branch, DTP, NCI, 2025)

Tested on: 653999-131-R-J2-PDC complex spheroids, growth inhibition
Test: Anticancer human tumor 653999-131-R-J2-PDC patient-derived lung adenocarcinoma cell line growth inhibition [RAS]
Conditions: for IC50: curve of first compound; for viability, T/C: stronger effect = lower value
Description: RAS pathway inhibitors in Combinations in Complex Spheroids
A high-throughput screen of multi-cell type tumor spheroids was designed to identify active combinations of RAS pathway inhibitors and targeted small molecules. Complex spheroids include a stromal component modeled by human endothelial cells (HUVEC) and fibroblasts modeled by human mesenchymal stem cells (MSCs). The concentration ranges selected for each drug and investigational agent were based upon clinically achievable concentrations if the clinical Cmax of the agent was known.
Compounds. The drugs and investigational agents: abemaciclib (NSC768073), cobimetinib (NSC768068), divarasib (GDC6063, NSC841802), docetaxel (NSC628503), GDC-1971 (RLY-1971, NSC841576), gemcitabine (NSC613327), inavolisib (NSC800729), ipatasertib (NSC767898), KB-0742 (NSC834161), MRTX-1133 (NSC836407), osimertinib (NSC779217), RMC-4630 (NSC839698), RMC-6236 (NSC851965), RMC-6291 (NSC852671), Ro-3306 (NSC812927), sapanisertib (NSC764658), SN-38 (NSC673596), staurosporine (NSC755774), SY5609 (NSC837396), and tovorafenib (DAY101, NSC766906), were obtained from the National Cancer Institute (NCI) Developmental Therapeutics Program Chemical Repository. The FDA-approved anticancer drug set is available from the NCI Developmental Therapeutics Program. […] The stock solutions were prepared in dimethyl sulfoxide (DMSO, Sigma-Aldrich, St. Louis, MO, cat. D2650) at 800-fold the tested concentration and stored at -70 degrees C prior to their use. All drugs and investigational agents were tested over a range starting from a high concentration at or near the clinical Cmax and decreasing in half-log increments. If the clinical Cmax for an agent had not been determined, the highest concentration tested was 10 microM.
Cell Culture. All cells were maintained in an incubator at 37 degrees C and 5% CO2 with 95% humidity. The PDC lines were cultured according to standard operating procedures established by the NCI PDMR. All PDCs were thawed and cultured in Matrigel-coated flasks prepared with a working solution of 1X Ham's F-12 nutrient mix, without supplementation (Invitrogen, Waltham, MA, cat. 11765054), 100 U/mL penicillin-streptomycin (Invitrogen, cat. 15140122), and 2.5% Matrigel (Corning Inc., Corning, NY, cat. 354248) for the first three passages. The 362531-283-R-J2-PDC and 782815-120-R-J1-PDC lines were cultured in 6C/Colon 1B media, which includes advanced DMEM/F-12 (Thermo Fisher Scientific, cat. 12634028), 10 mM HEPES (Thermo Fisher Scientific, cat. 15630080), 1X GlutaMAX supplement (Thermo Fisher Scientific, cat. 35050061), 0.1 mg/mL primocin (InvivoGen, San Diego, CA, cat. ant-pm-2), 10% defined fetal bovine serum, heat inactivated (HyClone Laboratories Inc., Logan, UT, cat. SH30070.03HI), 50% L-WRN conditioned media (ATCC, cat. CRL-3276), 1.25 mM N-Acetyl-L-cysteine (Sigma-Aldrich, cat. A9165), 10 mM nicotinamide (Sigma-Aldrich, cat. N0636), 1X B-27 supplement (Thermo Fisher Scientific, cat. 17504044), 1X N-2 supplement (Thermo Fisher Scientific, cat. 17502048), 50 ng/mL human EGF (Thermo Fisher Scientific, cat. PHG0311), and 10 microM Y-27632 dihydrochloride (Tocris Bioscience, cat. 1254). The K12877-001-R-J1-PDC line was cultured in 6I media, which includes all 6C/Colon 1B media plus 10 ng/mL human FGF-10 (PeproTech, cat. 100-26), 1 ng/mL human FGF-2 (PeproTech, cat. 100-18B), 1 µM prostaglandin E2 (Tocris Bioscience, cat. 2296), […] hydrocortisone (Sigma-Aldrich, cat. H4001), and […] bovine insulin (Sigma-Aldrich, cat. I6634). The K86415-001-R-J1-PDC line was cultured in 6D media, which includes all 6C/Colon 1B media components minus the L-WRN conditioned media. The 485176-168-R4-J1-PDC was cultured in PANC media, which includes all 6C/Colon 1B media plus 100 ng/mL human FGF-10 (PeproTech, cat. 100-26), 500 nM SB-431542 (Selleckchem, cat. S1067), and 10 nM gastrin (Tocris Bioscience, cat. 3006). […]
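Note: spheroids exposed to the agents for seven days before the readout.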

CC(Nc1ccc2c(c1)OCCn1cc(N3C(=O)OCC3C(F)F)nc1-2)C(N)=O (configuration not stated) + CCn1c(-c2cc(N3CCN(C)CC3)cnc2C(C)OC)c2c3cc(ccc31)-c1csc(n1)CC(NC(=O)C1CC1C)C(=O)N1CCCC(N1)C(=O)OCC(C)(C)C2
IC50 (second compound 0.000949 µM): 160 nM | IC50 (second compound 0.003 µM): 152 nM | IC50 (second compound 0.00949 µM): < 31.6 nM | IC50 (second compound 0.03 µM): < 31.6 nM | IC50 (second compound 0.0949 µM): < 31.6 nM | IC50 (second compound 0.3 µM): < 31.6 nM | viability, T/C (second compound 0.000949 µM, first compound 0.0316 µM): 72.8% | viability, T/C (second compound 0.000949 µM, first compound 0.1 µM): 57.9% | viability, T/C (second compound 0.000949 µM, first compound 0.316 µM): 37.4% | viability, T/C (second compound 0.000949 µM, first compound 1 µM): 33.5% | viability, T/C (second compound 0.000949 µM, first compound 3.16 µM): 24.9% | viability, T/C (second compound 0.000949 µM, first compound 10 µM): 18.5% | viability, T/C (second compound 0.003 µM, first compound 0.0316 µM): 60% | viability, T/C (second compound 0.003 µM, first compound 0.1 µM): 56.5% | viability, T/C (second compound 0.003 µM, first compound 0.316 µM): 38.9% | viability, T/C (second compound 0.003 µM, first compound 1 µM): 35.6% | viability, T/C (second compound 0.003 µM, first compound 3.16 µM): 17.2% | viability, T/C (second compound 0.003 µM, first compound 10 µM): 13.2% | viability, T/C (second compound 0.00949 µM, first compound 0.0316 µM): 37.8% | viability, T/C (second compound 0.00949 µM, first compound 0.1 µM): 32.8% | viability, T/C (second compound 0.00949 µM, first compound 0.316 µM): 29.7% | viability, T/C (second compound 0.00949 µM, first compound 1 µM): 19.1% | viability, T/C (second compound 0.00949 µM, first compound 3.16 µM): 16.3% | viability, T/C (second compound 0.00949 µM, first compound 10 µM): 10.7% | viability, T/C (second compound 0.03 µM, first compound 0.0316 µM): 34.5% | viability, T/C (second compound 0.03 µM, first compound 0.1 µM): 27.7% | viability, T/C (second compound 0.03 µM, first compound 0.316 µM): 21.2% | viability, T/C (second compound 0.03 µM, first compound 1 µM): 12% | viability, T/C (second compound 0.03 µM, first compound 3.16 µM): 11.2% | viability, T/C (second compound 0.03 µM, first compound 10 µM): 6.45% | viability, T/C (second compound 0.0949 µM, first compound 0.0316 µM): 27.4% | viability, T/C (second compound 0.0949 µM, first compound 0.1 µM): 19.4% | viability, T/C (second compound 0.0949 µM, first compound 0.316 µM): 12% | viability, T/C (second compound 0.0949 µM, first compound 1 µM): 13% | viability, T/C (second compound 0.0949 µM, first compound 3.16 µM): 8.97% | viability, T/C (second compound 0.0949 µM, first compound 10 µM): 5.82% | viability, T/C (second compound 0.3 µM, first compound 0.0316 µM): 20.6% | viability, T/C (second compound 0.3 µM, first compound 0.1 µM): 14.2% | viability, T/C (second compound 0.3 µM, first compound 0.316 µM): 12.9% | viability, T/C (second compound 0.3 µM, first compound 1 µM): 8.03% | viability, T/C (second compound 0.3 µM, first compound 3.16 µM): 7.08% | viability, T/C (second compound 0.3 µM, first compound 10 µM): 4.92%
